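Exposure lasted 48 hours, with cells grown in 96-well plates and compounds tested at five concentrations. Abbreviation: GI50, concentration required for 50% inhibition of growth. Definition used: TGI = concentration required for complete inhibition of growth.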
Columns and labels:
Assay in all cases: NCI tumour cell line growth inhibition, 48 h
HL-60(TB) leukemia = tested on: HL-60(TB) leukemia
A549 NSCLC = tested on: A549 NSCLC
MOLT-4 leukemia = tested on: MOLT-4 leukemia
MCF7 breast = tested on: MCF7 breast
SF-295 CNS = tested on: SF-295 CNS
SNB-19 CNS = tested on: SNB-19 CNS
HCC-2998 colon = tested on: HCC-2998 colon
CCRF-CEM leukemia = tested on: CCRF-CEM leukemia
MDA-MB-435 = tested on: MDA-MB-435
U251 CNS = tested on: U251 CNS
OVCAR-4 ovarian = tested on: OVCAR-4 ovarian
UO-31 renal = tested on: UO-31 renal
SR leukemia = tested on: SR leukemia
786-0 renal = tested on: 786-0 renal
DU-145 prostate = tested on: DU-145 prostate
SW-620 colon = tested on: SW-620 colon
M14 melanoma = tested on: M14 melanoma
MALME-3M melanoma = tested on: MALME-3M melanoma
A498 renal = tested on: A498 renal
SF-539 CNS = tested on: SF-539 CNS
SK-MEL-2 melanoma = tested on: SK-MEL-2 melanoma
SNB-75 CNS = tested on: SNB-75 CNS
NCI-H226 lung = tested on: NCI-H226 lung
SK-OV-3 ovarian = tested on: SK-OV-3 ovarian
RXF 393 renal = tested on: RXF 393 renal
UACC-62 melanoma = tested on: UACC-62 melanoma
SK-MEL-28 melanoma = tested on: SK-MEL-28 melanoma
HT29 colon = tested on: HT29 colon

SMILES: CN1CCN(Cc2ccc(NC(=O)c3cncc(C#Cc4cnc(N)c5cccnc45)c3)cc2C(F)(F)F)CC1
- GI50 (HL-60(TB) leukemia): 223 nM
- TGI (HL-60(TB) leukemia): 1170 nM
- GI50 (A549 NSCLC): 1350 nM
- TGI (A549 NSCLC): > 50000 nM
- GI50 (MOLT-4 leukemia): 214 nM
- TGI (MOLT-4 leukemia): > 50000 nM
- GI50 (MCF7 breast): 690 nM
- TGI (MCF7 breast): > 50000 nM
- GI50 (SF-295 CNS): 2070 nM
- TGI (SF-295 CNS): > 50000 nM
- GI50 (SNB-19 CNS): 2050 nM
- TGI (SNB-19 CNS): > 50000 nM
- GI50 (HCC-2998 colon): 484 nM
- TGI (HCC-2998 colon): > 50000 nM
- GI50 (CCRF-CEM leukemia): 234 nM
- TGI (CCRF-CEM leukemia): > 50000 nM
- GI50 (MDA-MB-435): 150 nM
- GI50 (U251 CNS): 233 nM
- TGI (U251 CNS): > 31500 nM
- GI50 (OVCAR-4 ovarian): 149 nM
- TGI (OVCAR-4 ovarian): > 50000 nM
- GI50 (UO-31 renal): 1100 nM
- TGI (UO-31 renal): 2780 nM
- GI50 (SR leukemia): 293 nM
- TGI (SR leukemia): > 50000 nM
- GI50 (786-0 renal): 1260 nM
- TGI (786-0 renal): > 50000 nM
- GI50 (DU-145 prostate): 309 nM
- TGI (DU-145 prostate): > 50000 nM
- GI50 (SW-620 colon): 262 nM
- TGI (SW-620 colon): 2900 nM
- GI50 (M14 melanoma): 143 nM
- TGI (M14 melanoma): 604 nM
- GI50 (MALME-3M melanoma): 55.8 nM
- TGI (MALME-3M melanoma): 273 nM
- GI50 (A498 renal): 112 nM
- TGI (A498 renal): 723 nM
- GI50 (SF-539 CNS): 288 nM
- TGI (SF-539 CNS): 1780 nM
- GI50 (SK-MEL-2 melanoma): 120 nM
- TGI (SK-MEL-2 melanoma): 332 nM
- GI50 (SNB-75 CNS): 469 nM
- TGI (SNB-75 CNS): > 12000 nM
- GI50 (NCI-H226 lung): 191 nM
- TGI (NCI-H226 lung): > 50000 nM
- GI50 (SK-OV-3 ovarian): 203 nM
- TGI (SK-OV-3 ovarian): > 50000 nM
- GI50 (RXF 393 renal): 255 nM
- TGI (RXF 393 renal): 2510 nM
- GI50 (UACC-62 melanoma): 182 nM
- TGI (UACC-62 melanoma): 956 nM
- GI50 (SK-MEL-28 melanoma): 176 nM
- TGI (SK-MEL-28 melanoma): 1850 nM
- GI50 (HT29 colon): 157 nM
- TGI (HT29 colon): > 50000 nM

Reference: PubChem BioAssay (NCI)
